# Experimental data taken from article PMC9851200, “Multiparameter phenotypic screening for endogenous TFEB and TFE3 translocation identifies novel chemical series modulating lysosome function” (Autophagy, 2022).
# Key:
# Type in all cases: binding
# [1] = target: kinases (KINOMEscan panel) (Homo sapiens, UniProt O75460); conditions: NEW KINOMEscan
# [2] = target: kinases (KINOMEscan panel) (Homo sapiens, UniProt P00519, F317I); conditions: NEW KINOMEscan; for KINOMEscan ABL1(F317I)-phosphorylated: kinase ABL1(F317I)-phosphorylated
# [3] = target: kinases (KINOMEscan panel) (Homo sapiens, UniProt P54764); conditions: EPHA4; NEW KINOMEscan
# [4] = target: T1, kinases (KINOMEscan panel) (Homo sapiens, UniProt Q08881); conditions: kinase ITK; NEW KINOMEscan
# T1 sequence (Q08881 1-620): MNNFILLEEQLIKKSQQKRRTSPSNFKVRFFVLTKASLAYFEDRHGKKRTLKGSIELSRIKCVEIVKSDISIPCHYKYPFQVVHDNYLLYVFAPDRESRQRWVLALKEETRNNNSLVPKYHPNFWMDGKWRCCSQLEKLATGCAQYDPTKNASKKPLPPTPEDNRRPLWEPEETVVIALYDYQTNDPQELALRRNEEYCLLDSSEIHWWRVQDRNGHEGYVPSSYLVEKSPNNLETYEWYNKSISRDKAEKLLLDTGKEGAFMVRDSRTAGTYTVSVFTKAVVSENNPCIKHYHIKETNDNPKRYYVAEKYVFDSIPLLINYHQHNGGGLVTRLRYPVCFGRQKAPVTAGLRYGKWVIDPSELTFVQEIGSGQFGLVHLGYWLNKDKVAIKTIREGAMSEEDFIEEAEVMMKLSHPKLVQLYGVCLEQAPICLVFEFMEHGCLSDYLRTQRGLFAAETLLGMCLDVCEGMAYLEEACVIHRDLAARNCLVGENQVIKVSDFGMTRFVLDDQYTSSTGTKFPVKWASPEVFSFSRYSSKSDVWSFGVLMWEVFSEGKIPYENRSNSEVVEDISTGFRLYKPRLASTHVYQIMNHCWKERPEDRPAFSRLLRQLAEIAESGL
# [5] = target: kinases (KINOMEscan panel) (Homo sapiens, UniProt Q13177); conditions: PAK2; NEW KINOMEscan
# [6] = target: kinases (KINOMEscan panel) (Homo sapiens, UniProt Q15569); conditions: TESK1; NEW KINOMEscan
# [7] = target: kinases (KINOMEscan panel) (Homo sapiens, UniProt Q16513); conditions: kinase PKN2; NEW KINOMEscan
# [8] = target: T2, kinases (KINOMEscan panel) (Homo sapiens, UniProt Q6PHR2); conditions: kinase ULK3; NEW KINOMEscan
# T2 sequence (Q6PHR2 1-472): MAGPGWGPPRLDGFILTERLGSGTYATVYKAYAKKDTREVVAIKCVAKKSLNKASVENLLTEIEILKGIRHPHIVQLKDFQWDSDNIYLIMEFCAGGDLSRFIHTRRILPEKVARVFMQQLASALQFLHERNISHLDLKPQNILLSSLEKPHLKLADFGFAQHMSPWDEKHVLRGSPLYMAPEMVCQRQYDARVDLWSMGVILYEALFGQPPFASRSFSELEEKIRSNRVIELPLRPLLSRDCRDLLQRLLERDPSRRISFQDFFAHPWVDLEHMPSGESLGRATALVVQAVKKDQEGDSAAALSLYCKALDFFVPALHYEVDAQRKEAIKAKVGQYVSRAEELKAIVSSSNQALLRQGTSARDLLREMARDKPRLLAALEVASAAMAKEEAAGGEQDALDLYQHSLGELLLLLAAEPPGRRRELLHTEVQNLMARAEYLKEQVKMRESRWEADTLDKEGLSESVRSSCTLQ
# [9] = target: kinases (KINOMEscan panel) (Homo sapiens, UniProt Q86Y07); conditions: NEW KINOMEscan
# [10] = target: T3, kinases (KINOMEscan panel) (Homo sapiens, UniProt Q8NG66); conditions: NEW KINOMEscan
# T3 sequence (Q8NG66 1-645): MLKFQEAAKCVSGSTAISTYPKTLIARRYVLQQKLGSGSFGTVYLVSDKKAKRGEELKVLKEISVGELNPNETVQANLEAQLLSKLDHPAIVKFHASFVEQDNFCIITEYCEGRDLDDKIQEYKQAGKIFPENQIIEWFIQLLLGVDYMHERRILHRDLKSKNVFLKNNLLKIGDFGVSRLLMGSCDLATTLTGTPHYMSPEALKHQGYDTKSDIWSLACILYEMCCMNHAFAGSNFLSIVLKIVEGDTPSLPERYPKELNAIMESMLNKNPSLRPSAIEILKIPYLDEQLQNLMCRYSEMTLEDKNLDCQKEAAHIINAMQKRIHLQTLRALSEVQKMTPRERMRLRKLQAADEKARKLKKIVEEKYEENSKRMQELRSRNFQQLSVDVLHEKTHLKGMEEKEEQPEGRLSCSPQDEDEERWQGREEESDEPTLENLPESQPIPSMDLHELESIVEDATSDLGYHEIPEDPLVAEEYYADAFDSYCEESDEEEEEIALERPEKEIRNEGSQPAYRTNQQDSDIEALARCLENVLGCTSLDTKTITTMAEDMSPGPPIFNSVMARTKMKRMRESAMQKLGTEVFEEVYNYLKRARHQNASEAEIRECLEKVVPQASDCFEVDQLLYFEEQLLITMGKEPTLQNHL
# [11] = target: kinases (KINOMEscan panel) (Homo sapiens, UniProt Q9H2X6); conditions: NEW KINOMEscan
# [12] = target: kinases (KINOMEscan panel) (Homo sapiens, UniProt Q9UQM7); conditions: kinase CAMK2A; NEW KINOMEscan
# Sequence of kinases (KINOMEscan panel) (Homo sapiens, UniProt Q9UQM7) (Q9UQM7 whole entry): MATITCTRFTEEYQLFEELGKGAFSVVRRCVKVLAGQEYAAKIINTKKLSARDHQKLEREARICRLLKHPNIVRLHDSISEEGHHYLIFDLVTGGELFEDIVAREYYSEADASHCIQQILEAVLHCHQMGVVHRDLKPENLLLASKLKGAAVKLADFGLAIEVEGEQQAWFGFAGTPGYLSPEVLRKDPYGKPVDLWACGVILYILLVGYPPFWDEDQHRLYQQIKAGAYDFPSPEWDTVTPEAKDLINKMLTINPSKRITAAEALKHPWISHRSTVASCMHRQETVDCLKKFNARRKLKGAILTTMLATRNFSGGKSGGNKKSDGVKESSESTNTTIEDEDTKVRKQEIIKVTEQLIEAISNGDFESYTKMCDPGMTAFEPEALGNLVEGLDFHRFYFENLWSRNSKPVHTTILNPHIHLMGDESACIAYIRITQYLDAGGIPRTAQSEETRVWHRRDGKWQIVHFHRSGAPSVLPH
# Sequence of kinases (KINOMEscan panel) (Homo sapiens, UniProt P00519, F317I) (P00519 whole entry F317I): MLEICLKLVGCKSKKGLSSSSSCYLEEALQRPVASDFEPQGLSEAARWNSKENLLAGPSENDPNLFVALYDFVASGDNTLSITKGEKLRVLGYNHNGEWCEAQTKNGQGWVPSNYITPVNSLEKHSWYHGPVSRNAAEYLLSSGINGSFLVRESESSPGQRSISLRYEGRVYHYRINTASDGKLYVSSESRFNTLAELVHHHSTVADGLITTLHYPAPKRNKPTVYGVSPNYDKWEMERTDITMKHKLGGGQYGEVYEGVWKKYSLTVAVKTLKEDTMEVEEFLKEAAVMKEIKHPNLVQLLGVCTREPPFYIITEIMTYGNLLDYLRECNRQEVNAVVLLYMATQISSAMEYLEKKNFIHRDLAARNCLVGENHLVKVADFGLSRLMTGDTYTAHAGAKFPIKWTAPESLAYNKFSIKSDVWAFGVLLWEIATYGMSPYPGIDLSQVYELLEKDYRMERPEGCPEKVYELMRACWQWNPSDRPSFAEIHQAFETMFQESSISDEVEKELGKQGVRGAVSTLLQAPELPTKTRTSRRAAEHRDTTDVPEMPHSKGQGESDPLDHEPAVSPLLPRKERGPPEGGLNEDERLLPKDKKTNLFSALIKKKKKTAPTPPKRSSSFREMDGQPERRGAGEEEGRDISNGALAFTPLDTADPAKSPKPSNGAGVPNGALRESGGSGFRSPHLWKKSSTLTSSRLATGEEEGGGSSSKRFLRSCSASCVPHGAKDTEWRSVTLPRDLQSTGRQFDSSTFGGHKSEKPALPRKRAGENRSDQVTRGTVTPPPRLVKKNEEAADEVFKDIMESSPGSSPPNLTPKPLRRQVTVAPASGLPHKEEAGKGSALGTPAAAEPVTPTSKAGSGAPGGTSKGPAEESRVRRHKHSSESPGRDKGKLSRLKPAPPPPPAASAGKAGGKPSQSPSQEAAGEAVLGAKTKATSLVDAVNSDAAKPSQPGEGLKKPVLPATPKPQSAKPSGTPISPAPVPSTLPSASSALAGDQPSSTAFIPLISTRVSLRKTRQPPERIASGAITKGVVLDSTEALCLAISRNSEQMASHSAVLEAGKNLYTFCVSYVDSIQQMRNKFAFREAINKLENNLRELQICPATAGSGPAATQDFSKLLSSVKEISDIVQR
# Sequence of kinases (KINOMEscan panel) (Homo sapiens, UniProt O75460) (O75460 19-977): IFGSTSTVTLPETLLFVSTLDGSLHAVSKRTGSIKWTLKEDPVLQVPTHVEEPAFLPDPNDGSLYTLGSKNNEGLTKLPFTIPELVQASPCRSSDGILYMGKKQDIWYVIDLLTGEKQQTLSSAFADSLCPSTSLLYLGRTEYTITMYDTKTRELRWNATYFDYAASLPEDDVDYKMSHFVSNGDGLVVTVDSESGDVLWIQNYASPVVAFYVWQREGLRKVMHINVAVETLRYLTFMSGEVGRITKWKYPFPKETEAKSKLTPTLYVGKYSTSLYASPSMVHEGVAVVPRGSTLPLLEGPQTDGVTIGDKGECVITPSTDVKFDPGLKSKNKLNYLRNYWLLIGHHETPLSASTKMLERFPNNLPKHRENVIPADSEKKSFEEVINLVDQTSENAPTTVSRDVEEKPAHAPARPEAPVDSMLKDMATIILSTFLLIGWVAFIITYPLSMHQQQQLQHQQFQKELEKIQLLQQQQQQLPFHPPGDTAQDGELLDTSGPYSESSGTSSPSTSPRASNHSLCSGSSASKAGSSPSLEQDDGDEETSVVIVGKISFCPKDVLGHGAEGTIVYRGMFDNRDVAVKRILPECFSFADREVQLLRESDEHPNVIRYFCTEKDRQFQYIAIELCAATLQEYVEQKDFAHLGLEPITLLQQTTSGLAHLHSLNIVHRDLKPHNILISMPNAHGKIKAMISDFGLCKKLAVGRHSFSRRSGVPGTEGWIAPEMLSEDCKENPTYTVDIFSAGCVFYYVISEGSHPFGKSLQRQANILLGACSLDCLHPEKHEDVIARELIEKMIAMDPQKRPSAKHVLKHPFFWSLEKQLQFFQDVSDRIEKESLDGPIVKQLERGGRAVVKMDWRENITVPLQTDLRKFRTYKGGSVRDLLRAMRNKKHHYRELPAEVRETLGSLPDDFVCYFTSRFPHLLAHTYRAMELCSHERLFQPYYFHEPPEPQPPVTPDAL
# Sequence of kinases (KINOMEscan panel) (Homo sapiens, UniProt P54764) (P54764 20-986): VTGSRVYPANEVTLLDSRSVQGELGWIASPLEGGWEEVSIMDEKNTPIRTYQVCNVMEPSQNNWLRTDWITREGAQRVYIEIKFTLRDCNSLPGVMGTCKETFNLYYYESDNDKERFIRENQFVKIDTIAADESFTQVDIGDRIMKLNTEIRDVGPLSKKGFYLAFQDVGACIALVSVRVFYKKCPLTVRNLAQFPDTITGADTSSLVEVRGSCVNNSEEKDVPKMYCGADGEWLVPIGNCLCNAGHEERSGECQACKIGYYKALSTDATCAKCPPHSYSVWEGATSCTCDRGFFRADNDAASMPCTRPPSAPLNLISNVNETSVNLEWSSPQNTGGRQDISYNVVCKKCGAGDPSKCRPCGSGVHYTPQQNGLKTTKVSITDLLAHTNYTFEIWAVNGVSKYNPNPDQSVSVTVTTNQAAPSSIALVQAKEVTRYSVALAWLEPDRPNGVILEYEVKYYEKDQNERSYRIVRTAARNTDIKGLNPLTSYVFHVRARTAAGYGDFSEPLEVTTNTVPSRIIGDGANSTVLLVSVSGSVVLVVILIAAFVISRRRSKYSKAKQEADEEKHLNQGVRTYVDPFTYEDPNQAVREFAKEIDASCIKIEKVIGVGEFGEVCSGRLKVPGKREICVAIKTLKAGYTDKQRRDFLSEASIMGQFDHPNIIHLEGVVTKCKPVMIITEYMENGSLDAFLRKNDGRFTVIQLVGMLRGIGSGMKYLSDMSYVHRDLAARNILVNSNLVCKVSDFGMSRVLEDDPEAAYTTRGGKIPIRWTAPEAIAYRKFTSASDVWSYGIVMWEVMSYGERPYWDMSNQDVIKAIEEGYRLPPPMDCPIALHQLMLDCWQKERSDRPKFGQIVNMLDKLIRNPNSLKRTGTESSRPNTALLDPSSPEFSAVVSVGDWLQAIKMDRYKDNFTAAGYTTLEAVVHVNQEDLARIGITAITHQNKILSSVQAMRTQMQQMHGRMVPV
# Sequence of kinases (KINOMEscan panel) (Homo sapiens, UniProt Q86Y07) (Q86Y07 whole entry): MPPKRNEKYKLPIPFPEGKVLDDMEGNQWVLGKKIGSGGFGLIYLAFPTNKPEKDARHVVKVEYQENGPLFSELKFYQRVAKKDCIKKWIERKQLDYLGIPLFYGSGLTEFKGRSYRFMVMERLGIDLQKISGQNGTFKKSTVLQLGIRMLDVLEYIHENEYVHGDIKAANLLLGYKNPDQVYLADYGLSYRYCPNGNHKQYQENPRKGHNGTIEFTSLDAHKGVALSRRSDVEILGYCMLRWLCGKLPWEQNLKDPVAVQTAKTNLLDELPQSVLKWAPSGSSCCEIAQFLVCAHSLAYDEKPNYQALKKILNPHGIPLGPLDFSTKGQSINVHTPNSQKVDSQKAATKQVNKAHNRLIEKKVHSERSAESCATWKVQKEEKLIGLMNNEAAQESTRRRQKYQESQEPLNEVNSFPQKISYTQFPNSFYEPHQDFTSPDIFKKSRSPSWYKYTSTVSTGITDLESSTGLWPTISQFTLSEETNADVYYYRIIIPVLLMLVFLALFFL
# Sequence of kinases (KINOMEscan panel) (Homo sapiens, UniProt Q13177) (Q13177 whole entry): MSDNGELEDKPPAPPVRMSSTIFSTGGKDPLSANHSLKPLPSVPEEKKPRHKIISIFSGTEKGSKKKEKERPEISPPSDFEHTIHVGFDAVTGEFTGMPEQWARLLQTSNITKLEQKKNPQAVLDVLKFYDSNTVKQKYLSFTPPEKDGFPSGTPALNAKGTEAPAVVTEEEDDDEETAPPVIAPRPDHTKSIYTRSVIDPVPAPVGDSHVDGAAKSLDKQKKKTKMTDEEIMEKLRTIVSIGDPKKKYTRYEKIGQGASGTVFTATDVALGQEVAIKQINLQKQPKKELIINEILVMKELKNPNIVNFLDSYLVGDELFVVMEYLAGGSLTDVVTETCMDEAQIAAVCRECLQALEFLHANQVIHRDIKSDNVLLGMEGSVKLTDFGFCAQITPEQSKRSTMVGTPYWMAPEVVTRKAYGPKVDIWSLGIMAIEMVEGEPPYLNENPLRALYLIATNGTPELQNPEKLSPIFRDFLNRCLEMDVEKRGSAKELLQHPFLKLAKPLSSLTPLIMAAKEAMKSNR
Structure (SMILES),KINOMEscan ERN1 [1],KINOMEscan ABL1(F317I)-nonphosphorylated [2],KINOMEscan ABL1(F317I)-phosphorylated [2],KINOMEscan EPHA4 [3],KINOMEscan ITK [4],KINOMEscan PAK2 [5],KINOMEscan TESK1 [6],KINOMEscan PKN2 [7],KINOMEscan ULK3 [8],KINOMEscan VRK2 [9],KINOMEscan NEK11 [10],KINOMEscan HIPK2 [11],KINOMEscan CAMK2A [12]
Cc1cccc(-c2nc(N(C)c3ccc4ncsc4c3)c3ccccc3n2)n1 [NK-161],11,9,0,5,14,0,0,0,1,25,2,28,0
Cc1cccc(-c2nc(Nc3ccc4nn(C)cc4c3)c3ccccc3n2)n1 [NK167],0,0,0,0,0,0,0,0,0,11,0,33,0
